Measured values published in patent US9334246B2, “Substituted triazines for malaria treatment and chemoprophylaxis” (The United States of America, as represented by the …, priority 2013, dated 2016).

Assays:
Type in all cases: cell-based, Plasmodium falciparum
P. falciparum W2 = test: Malaria SYBR Green Fluorescence Assay, W2 strain; conditions: for W2: SYBR Green Assay
P. falciparum C235 = test: Malaria SYBR Green Fluorescence Assay, C235 strain; conditions: for C235: SYBR Green Assay
P. falciparum D6 = test: Malaria SYBR Green Fluorescence Assay, D6 strain; conditions: for D6: SYBR Green Assay

Molecule	W2 (SYBR Green Assay IC50) (P. falciparum W2)	C235 (SYBR Green Assay IC50) (P. falciparum C235)	D6 (SYBR Green Assay IC50) (P. falciparum D6)	W2 (P. falciparum W2)	C235 (P. falciparum C235)	D6 (P. falciparum D6)
COc1ccc(-c2nc(NCC3CCN(C(C)C)CC3)nc(C(Cl)(Cl)Cl)n2)cc1OC [Cmpd 501]	0.094 µg/mL	0.241 µg/mL	0.362 µg/mL			
CC(C)CN1CCC(CC1)NC1═NC(═NC(═N1)C1═CC═C(C═C1)C1═CC═CC═C1)C(Cl)(Cl)Cl [Compound 699]				430 ng/mL	746 ng/mL	564 ng/mL
CC(=O)Nc1cccc(Nc2nc(NCCC3CCCN3C)nc(C(Cl)(Cl)Cl)n2)c1 (stereo not drawn) [Cmpd 92]				106 ng/mL	164 ng/mL	122 ng/mL
CCN1CCC(CNc2nc(-c3ccc(C)cc3)nc(C(Cl)(Cl)Cl)n2)CC1 [Cmpd 265]				714 ng/mL	672 ng/mL	803 ng/mL
CC1(C)CC(Nc2nc(-c3ccc(F)cc3)nc(C(Cl)(Cl)Cl)n2)CC(C)(C)N1 [Cmpd 391]	0.019 µg/mL	0.046 µg/mL	0.043 µg/mL			
FC(F)(F)Oc1ccc(Nc2nc(NCCN3CCCC3)nc(C(Cl)(Cl)Cl)n2)cc1 [Compound 656, FC(F)(F)OC1═CC═C(NC2═NC(═NC(NCCN3CCCC3)═N2)C(Cl)(Cl)Cl)C═C1]				2 ng/mL	7 ng/mL	3 ng/mL
ClC(Cl)(Cl)c1nc(NCCN2CCCC2)nc(-c2ccccc2)n1 [Cmpd 405]	0.016 µg/mL	0.045 µg/mL	0.027 µg/mL			
CN(C)CCCNc1nc(-c2ccc(Cl)cc2)nc(C(Cl)(Cl)Cl)n1 [Cmpd 560]	0.009 µg/mL	0.018 µg/mL	0.02 µg/mL			
CCN1CCC(CNc2nc(-c3ccc(OC)c4ccccc34)nc(C(Cl)(Cl)Cl)n2)CC1 [Cmpd 279]				20 ng/mL	77 ng/mL	66 ng/mL
CCN(CC)CCNc1nc(Nc2ccc(OC)nc2)nc(C(Cl)(Cl)Cl)n1 [Cmpd 342]				149 ng/mL	398 ng/mL	335 ng/mL
COc1ccc(-c2nc(N3CCC(N)CC3)nc(C(Cl)(Cl)Cl)n2)c2ccccc12 [Compound 620, COC1═CC═C(C2═NC(═NC(═N2)C(Cl)(Cl)Cl)N2CCC(N)CC2)C2═C1C═CC═C2]	0.175 µg/mL	0.409 µg/mL	0.431 µg/mL			
COc1ncccc1Nc1nc(N2CCCNCC2)nc(C(Cl)(Cl)Cl)n1 [Cmpd 378]	0.059 µg/mL	0.098 µg/mL	0.05 µg/mL			
NC1CCN(c2nc(-c3cccc(C(F)(F)F)c3)nc(C(Cl)(Cl)Cl)n2)CC1 [Compound 625, NC1CCN(CC1)C1═NC(═NC(═N1)C1═CC═CC(═C1)C(F)(F)F)C(Cl)(Cl)Cl]	0.012 µg/mL	0.02 µg/mL	0.047 µg/mL			
COc1cc(OC)cc(-c2nc(NCC3(N)CCCC3)nc(C(Cl)(Cl)Cl)n2)c1 [Cmpd 530]	0.014 µg/mL	0.013 µg/mL	0.013 µg/mL			
CC(C)(N)CNc1nc(-c2ccc(Cl)cc2)nc(C(Cl)(Cl)Cl)n1 [Cmpd 284]				3 ng/mL	18 ng/mL	12 ng/mL
COc1ccccc1-c1nc(NCCCN2CCCC2)nc(C(Cl)(Cl)Cl)n1 [Cmpd 105]				73 ng/mL	93 ng/mL	145 ng/mL
CCN(CC)CCNc1nc(-c2ccccc2C)nc(C(Cl)(Cl)Cl)n1 [Cmpd 123]				31 ng/mL	67 ng/mL	57 ng/mL
Clc1cccc(-c2nc(NCCCN3CCCC3)nc(C(Cl)(Cl)Cl)n2)c1 [Cmpd 433]	0.044 µg/mL	0.145 µg/mL	0.076 µg/mL			
CN1CCC(CNc2nc(-c3cccc(C(F)(F)F)c3)nc(C(Cl)(Cl)Cl)n2)CC1 [Cmpd 508]	0.013 µg/mL	0.022 µg/mL	0.034 µg/mL			
CS(=O)(=O)c1ccc(-c2nc(N3CCCN(CCO)CC3)nc(C(Cl)(Cl)Cl)n2)cc1 [Cmpd 132]				103 ng/mL	200 ng/mL	64 ng/mL
CN1CCC(CNc2nc(-c3cc(Cl)cc(Cl)c3)nc(C(Cl)(Cl)Cl)n2)CC1 [Cmpd 514]	0.026 µg/mL	0.028 µg/mL	0.079 µg/mL			

Molecule	W2 (SYBR Green Assay IC50) (P. falciparum W2)	C235 (SYBR Green Assay IC50) (P. falciparum C235)	D6 (SYBR Green Assay IC50) (P. falciparum D6)	W2 (P. falciparum W2)	C235 (P. falciparum C235)	D6 (P. falciparum D6)
CS(=O)(=O)c1ccc(-c2nc(NCCc3cccnc3)nc(C(Cl)(Cl)Cl)n2)cc1 [Cmpd 179]				201 ng/mL	680 ng/mL	471 ng/mL
CN1CCC(Nc2nc(-c3ccc(F)cc3)nc(C(Cl)(Cl)Cl)n2)CC1 [Cmpd 385]	0.039 µg/mL	0.057 µg/mL	0.028 µg/mL			
CC(C)N1CCC(CNc2nc(-c3cccc(C(F)(F)F)c3)nc(C(Cl)(Cl)Cl)n2)CC1 [Cmpd 489]	0.008 µg/mL	0.01 µg/mL	0.014 µg/mL			
OCCN1CCCN(c2nc(-c3ccc(Cl)cc3)nc(C(Cl)(Cl)Cl)n2)CC1 [Cmpd 455]	0.065 µg/mL	0.118 µg/mL	0.214 µg/mL			
COc1ccc(Nc2nc(NC3CCN(C)CC3)nc(C(Cl)(Cl)Cl)n2)cn1 [Cmpd 349]				129 ng/mL	296 ng/mL	124 ng/mL
NC1CCN(CC1)C1═NC(═NC(═N1)C1═CC2═C(C═CC═C2)C═C1)C(Cl)(Cl)Cl [Compound 628]	0.017 µg/mL	0.02 µg/mL	0.042 µg/mL			
Cc1ccc(-c2nc(N3CCCN(C)CC3)nc(C(Cl)(Cl)Cl)n2)cc1 [Cmpd 112]				107 ng/mL	209 ng/mL	168 ng/mL
COc1cc(OC)cc(-c2nc(NCCC3CCCN3C)nc(C(Cl)(Cl)Cl)n2)c1 (stereo not drawn) [Cmpd 478]	0.014 µg/mL	0.022 µg/mL	0.042 µg/mL			
ClC(Cl)(Cl)c1nc(NCCc2ccncc2)nc(-c2ccc3ccccc3c2)n1 [Cmpd 230]				59 ng/mL	212 ng/mL	246 ng/mL
Clc1ccc(cc1)c2nc(nc(n2)C(Cl)(Cl)Cl)N3CC4CC3CN4 [Compound 717]				163 ng/mL	264 ng/mL	259 ng/mL
CN1CCCC1CCNc1nc(Nc2ccc(OC(F)(F)F)cc2)nc(C(Cl)(Cl)Cl)n1 (stereo not drawn) [Cmpd 295]				10 ng/mL	23 ng/mL	10 ng/mL
CSc1ccc(-c2nc(NCCCN3CCCC3)nc(C(Cl)(Cl)Cl)n2)cc1 [Cmpd 44]				204 ng/mL	638 ng/mL	462 ng/mL
COc1ccc(-c2nc(NCCCN(C)C)nc(C(Cl)(Cl)Cl)n2)cc1OC [Cmpd 450]	0.091 µg/mL	0.252 µg/mL	0.239 µg/mL			
CCN1CCCC(Nc2nc(-c3ccccc3OC)nc(C(Cl)(Cl)Cl)n2)C1 (stereo not drawn) [Cmpd 215]				132 ng/mL	248 ng/mL	426 ng/mL
Cc1ccc(-c2nc(NCCc3cccnc3)nc(C(Cl)(Cl)Cl)n2)cc1 [Cmpd 172]				106 ng/mL	346 ng/mL	209 ng/mL
CS(═O)(═O)c1ccc(cc1)c2nc(Nc3ccc(cc3)n4cccn4)nc(n2)C(Cl)(Cl)Cl [Compound 689]				58 ng/mL	171 ng/mL	94 ng/mL
CCN1CCC(CNc2nc(-c3ccc(Cl)c(Cl)c3)nc(C(Cl)(Cl)Cl)n2)CC1 [Cmpd 257]				45 ng/mL	29 ng/mL	54 ng/mL
CN1CCC(Nc2nc(-c3ccc(C(Cl)(Cl)Cl)cc3)nc(C(Cl)(Cl)Cl)n2)CC1 [Cmpd 61]				376 ng/mL	556 ng/mL	570 ng/mL
CN1CCN(c2nc(-c3ccc(N4CCCC4)cc3)nc(C(Cl)(Cl)Cl)n2)CC1 [Cmpd 427]	0.459 µg/mL	0.877 µg/mL	0.676 µg/mL			
CCC(N)(CC)CNc1nc(-c2ccc(Cl)c(Cl)c2)nc(C(Cl)(Cl)Cl)n1 [Cmpd 388]	0.098 µg/mL	0.153 µg/mL	0.132 µg/mL			
